# Experimental data as given in US9675627B2, “Dosing regimens for treating and/or preventing cerebral amyloidoses” (Amicus Therapeutics, Inc., priority 2014, dated 2017).
# Key:
# β-hex [1] = target: T1, β-hex (Mus musculus, UniProt P20060); experiment: Proof-of-concept study: brain β-hex levels; assay type: in vivo, Dutch APP^E693Q transgenic mice; settings: 3-month course, dose-dependent
# T1 construct: from tissue; host or cells: brain of Dutch APP E693Q transgenic mice
# T1 sequence (P20060 32-536): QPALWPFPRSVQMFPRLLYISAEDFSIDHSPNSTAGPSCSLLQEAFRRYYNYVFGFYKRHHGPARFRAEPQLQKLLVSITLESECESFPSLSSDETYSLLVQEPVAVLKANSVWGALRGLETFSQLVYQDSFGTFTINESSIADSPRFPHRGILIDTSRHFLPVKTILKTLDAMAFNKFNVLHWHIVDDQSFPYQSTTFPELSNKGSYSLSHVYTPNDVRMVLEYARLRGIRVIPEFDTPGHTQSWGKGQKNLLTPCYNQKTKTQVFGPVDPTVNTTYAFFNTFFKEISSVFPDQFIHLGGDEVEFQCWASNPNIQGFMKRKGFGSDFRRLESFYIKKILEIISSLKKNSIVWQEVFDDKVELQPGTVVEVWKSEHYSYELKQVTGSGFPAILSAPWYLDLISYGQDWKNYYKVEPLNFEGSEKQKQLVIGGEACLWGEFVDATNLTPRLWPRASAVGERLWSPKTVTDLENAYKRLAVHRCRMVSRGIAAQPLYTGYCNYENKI
# Procedure: (§1) The generation and characterization of Dutch APPE693Q mice transgenic mice is described in Gandy, S., et al. Days to criterion as an indicator of toxicity associated with human Alzheimer amyloid-beta oligomers. Annals of neurology 68, 220-230 (2010). 3-month-old male Dutch APP^E693Q mice transgenic mice were orally gavaged 5 days/week with either vehicle (water) (n=15) or 3, 10, 30 or 100 mg/kg AdDNJ for 3 months (n=13). All animal studies were approved and conducted in accordance with the Institutional Animal Care and Usage Committee. Mice were kept in a pathogen-free environment, on a 12-hour light/dark cycle and given ad libitum access to food and water. At 6 month of age treatment groups, and a 3-month-old untreated baseline group (n=15), were cognitively assessed in the NOR, EPM and FC tests. 48 hours following the final dose mice were perfused with ice-cold 1×PBS. The brain was removed and dissected into two hemispheres. One half was snap-frozen on dry ice and stored at −80° C. for biochemistry; the other half was post-fixed in 4% paraformaldehyde then sagittally sectioned on a vibratome into 30 μm sections and stored at 4° C. in storage buffer until histological analyses.
# β-hex [2] = experiment: Proof-of-concept study: brain β-hex levels; assay type: in vivo, Dutch APP^E693Q transgenic mice; settings: 3-month course
# Procedure: as §1
# α-galactosidase (α-Gal) = target: T2, α-galactosidase (α-Gal) (Homo sapiens, UniProt P06280); experiment: Selectivity: alpha-galactosidase activity in fibroblast lysate; assay type: biochemical; settings: 10 μM, the highest concentration tested
# T2 construct: wild-type fibroblast (CRL2076) pellets (˜2.5e6 cells/pellet) were lysed; host or cells: wild-type fibroblasts CRL2076, lysate
# T2 sequence (P06280 32-429): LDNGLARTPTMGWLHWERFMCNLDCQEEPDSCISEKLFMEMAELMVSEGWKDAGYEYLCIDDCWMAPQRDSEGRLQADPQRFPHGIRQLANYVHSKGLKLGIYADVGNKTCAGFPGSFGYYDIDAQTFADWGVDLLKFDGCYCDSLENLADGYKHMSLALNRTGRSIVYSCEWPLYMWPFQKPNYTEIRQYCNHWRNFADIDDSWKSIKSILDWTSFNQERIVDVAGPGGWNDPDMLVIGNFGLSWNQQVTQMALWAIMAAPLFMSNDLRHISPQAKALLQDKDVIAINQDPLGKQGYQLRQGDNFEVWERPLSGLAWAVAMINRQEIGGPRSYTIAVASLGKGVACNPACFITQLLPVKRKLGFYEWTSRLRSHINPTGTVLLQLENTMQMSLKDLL
# From the text: Enzymatic activity measurements were done in duplicate.
# Aβ = Aβ assay (ELISA of monomeric Aβ, dot blot of oligomers) in brain; assay type: in vivo, Dutch APP^E693Q transgenic mice; settings: 3-month treatment, any dose tested
# Procedure: as §1
# Right hemibrains were processed via differential detergent solubilizationin accordance with Kawarabayashi, T., et al. Age-dependent changes in brain, CSF, and plasma amyloid (beta) protein in the Tg2576 transgenic mouse model of Alzheimer's disease. J Neurosci 21, 372-381 (2001). For analysis of native oligomeric Aβ protein structure, 2-4 μL native protein samples from TBS-soluble were spotted onto activated/pre-wetted PVDF membrane (0.22 μm; Millipore) and allowed to dry. Following protein spotting, membranes were blocked for 1 h at room temperature in 5% w/v non-fat milk (Santa Cruz) in TBS containing 0.1% v/v Tween-20 (Fisher Scientific; TBS-T). Membranes were then incubated in the indicated primary antibody (in 5% milk/TBS-T) overnight at 4 C, washed 4× in TBS-T, incubated in species-specific HRP-conjugated secondary antibody (in 5% milk/TBS-T) for 1 h at room temperature, and then washed 4× in TBS-T. Membranes were subsequently developed with ECL Western blotting substrate (Pierce) using the Fujifilm LAS-3000 developer. Membranes were then washed 1× in TBS-T and stripped in low pH stripping buffer [25 mM Glycine HCl, pH 2.0 and 1% w/v SDS] with vigorous shaking to remove primary and secondary antibody, washed 3× in TBS-T, and blocked for 1 h (in 5% milk/TBS-T) at room temperature before probing with the next primary antibody. Integrated density of immunoreactive spots was measured using MultiGauge Software (FujiFilm) and normalized to % control (vehicle). Generation, purification, and characterization of rabbit pAβ A11 (anti-prefibrillar oligomers, 0.5 μg/ml), rabbit pAβ OC (anti-fibrillar oligomers and fibrils; 0.25 μg/ml) and mouse mAβ Nu-4 (anti-oligomers; 1 μg/ml) have been described previously (Tomic, J. L., Pensalfini, A., Head, E. & Glabe, C. G. Soluble fibrillar oligomer levels are elevated in Alzheimer's disease brain and correlate with cognitive dysfunction. Neurobiology of disease 35, 352-358 (2009); Lambert, M. P., et al. Monoclonal antibodies that target pathological assemblies of Abeta. Journal of neurochemistry 100, 23-35 (2007)). […] To quantify monomeric Aβ levels, human/rat Aβ 1-40/1-42 ELISA kits (Wako) were used according to the manufacturer's instructions. […]
smiles,measurement,setting,value
"CC(=O)NC1CNC(CO)[C@@H](O)C1O (stereo partly drawn) [AdDNJ, 2-acetamido-1,2-dideoxynojirimycin]",brain β-hex B level,β-hex [1],increased
same,increase in total brain β-hex,"β-hex [2]; 3-100 mg/kg oral 5 days/week, at the highest dose",up to 3 fold
same,brain β-hex A&S level,β-hex [2]; dose-dependent,increased
same,inhibition of α-galactosidase (α-Gal),α-galactosidase (α-Gal),did not inhibit
same,Aβ40 level,Aβ,no change
same,Aβ42/40 ratio,Aβ,no change
same,Aβ42 level,Aβ,no change
same,Aβ oligomer levels,Aβ,no change
same,prefibrillar Aβ,Aβ,no change
